From US20180251431A1 (VERTEX PHARMACEUTICALS INCORPORATED, priority 2016, published 2018) come the findings set out here.

A word on the IC50: it is the concentration needed to halve the response being measured.

Some results are limits rather than exact numbers.

The subject of one experiment is HEK293 cells. The experiment can be described thus: HEK293 VLCFA-LPC IC50 determination (13C-labeled C26:0 LPC by UHPLC/MS). It is filed as cell-based, human. Conditions: Homo sapiens, HEK293, 48 h, average of one or more replicates; 13C-labeled C26:0 LPC, 48 hours; read-out: Average HEK293 IC50. The protocol: HEK293 cells were treated with compounds, such as those listed in Tables A-E of Example 1, using the representative manual protocols described below. The protocols below were also adapted to a semi-automated protocol using standard methods in the art.
Cell Culture Growth Conditions:
HEK293 cells were maintained in FreeStyle F17 media (Gibco # A13835) supplemented with PenStrep (1%, Gibco #15070-063), Glutamax (2%, Gibco #35050-061), and Pluronic (0.1%, Gibco #24040-032) (“supplemented media”). Suspension cultures were grown in disposable Erlenmeyer flasks at about 120 rpm, 37° C., 5% CO2, and 80% humidity. Cell densities were kept between about 0.5 and 3 million cells per mL, in about 50-200 mL per flask.
Treatment of Cells with Compounds Provided Herein:
The cells were treated with compounds using either a total of 900 uL cell media volume (high-volume assay) or a total of 200 uL cell media volume (low-volume assay). In the high volume assay, 450 μL of supplemented media plus 13C-acetate (1.0 mg/mL, Sigma Aldrich #282014) were added to 0.5 μL of a compound (such as those in Tables A-E) in DMSO in a polypropylene v-bottom plate (Costar #3363) in 1 of 3 dilution schemes. The contents of each well were mixed and transferred to a sterile polypropylene deep-well v-bottom plate (Costar #3960). 450 μL of cultured HEK293 cells in supplemented media at a density of 1.0 million cells/mL was added to each well. In the low volume assay, 100 μL of supplemented media plus 13C-acetate (1.0 mg/mL, Sigma Aldrich #282014) were added to either 0.1 μL or 1.0 uL of a compound (such as those in Tables A-E) in DMSO in a polypropylene v-bottom plate (Costar #3363) in 1 of 3 dilution schemes. 100 μL of cultured HEK293 cells in supplemented media at a density of 1.0 million cells/mL was added to each well. The high volume and low volume plates were sealed with either AirPore Tape Sheets (Qiagen #19571) or Duetz plate covers to control evaporation and placed into a shaking incubator at 225 rpm, 37° C., 5% CO2, and 80% humidity for 48 hours. For both the high and low volume assays the 3 dilution schemes used were as follows:
Following incubation, treated cells were harvested by centrifugation at 1690×g for 10 minutes. In the high volume assay 200 uL treated cells were transferred to a polypropylene v-bottom plate (Costar #3363) prior to centrifugation. In the low volume assay the incubation plate was centrifuged directly, without a transfer step. The supernatant was then discarded and the analytes were extracted using 1 of 2 different extraction schemes. In the first scheme, the cell pellet was visibly broken up by mixing the cell pellet up and down in 100 μL of hexane/isopropanol (60:40) 20 times. The resulting mixture was transferred to a 0.45 μm Durapore membrane (Millipore #MSH VN4510) atop a polypropylene v-bottom plate (Costar #3363) and filtered by centrifugation at 1690×g for 5 minutes. 120 μL of n-butanol containing 10 nM C13:0 lysophosphatidylcholine was added to the filtrate as an injection control standard, then the entire volume was transferred to a new Durapore membrane/v-bottom plate. In the second scheme, the cell pellet was visibly broken up by mixing the cell pellet up and down in 180 μL of methanol containing 10 nM C13:0 lysophosphatidylcholine 20 times. The resulting mixture was transferred to a 0.45 μm Durapore membrane (Millipore #MSH VN4510) atop a polypropylene v-bottom plate and filtered by centrifugation at 1690×g for 5 minutes. In both schemes, the plates were then sealed with pierceable capmats (Micronic MP53017) and stored at −20 OC until analyzed.
UHPLC/Mass Spectrometry Readout:
The filtered organic extraction was analyzed with a 1290 Agilent Infinity Series UHPLC coupled to an ABI Sciex QTrap 6500 mass spectrometer. […]
Take `COc1cncc(OC)c1-n1ccc(NC(=O)C2(c3ccccc3F)CC2)n1` [Compound 347, N-[1-(3,5-dimethoxy-4-pyridyl)pyrazol-3-yl]-1-(2-fluorophenyl)cyclopropanecarboxamide]: the IC50 is more than 5000 nM.

As for `COc1cncc(C#N)c1-n1ccc(NC(=O)C2(c3ccccc3F)CC2)n1` [Compound 327, N-[1-(3-cyano-5-methoxy-4-pyridyl)pyrazol-3-yl]-1-(2-fluorophenyl)cyclopropanecarboxamide], the IC50 was more than 5000 nM.

Take `Cc1ccccc1C1(C(=O)Nc2ccn(-c3ccncc3)n2)CC1` [Compound 373, 1-(o-tolyl)-N-[1-(4-pyridyl)pyrazol-3-yl]cyclopropanecarboxamide]: the IC50 was 140 nM.

`COc1cncc(F)c1-n1ccc(NC(=O)C2(c3ccccc3F)CC2)n1` [Compound 345, N-[1-(3-fluoro-5-methoxy-4-pyridyl)pyrazol-3-yl]-1-(2-fluorophenyl)cyclopropanecarboxamide]: the IC50 is more than 2000 nM.

Regarding `COc1ncc(-n2ccc(NC(=O)C3(c4ccccc4F)CC3)n2)cc1Cl` [Compound 378, N-(1-(5-chloro-6-methoxypyridin-3-yl)-1H-pyrazol-3-yl)-1-(2-fluorophenyl)cyclopropane-1-carboxamide], the IC50 is 120 nM.

Staying with this experiment, now noted: Homo sapiens, HEK293, HEK293 cells; average of one or more replicates; read-out: Average HEK293 IC50.
Regarding `O=C(Cc1ccccc1)Nc1ccn(-c2ccc(Cl)c(F)c2)n1` [Compound 193, N-[1-(4-chloro-3-fluoro-phenyl)pyrazol-3-yl]-2-phenyl-acetamide], the IC50 was more than 5000 nM.

Regarding `O=C(Cc1ccccc1F)Nc1ccn(-c2cncnc2)n1` [Compound 15, 2-(2-fluorophenyl)-N-(1-pyrimidin-5-ylpyrazol-3-yl)acetamide], the IC50 is 1000 nM.

On to `Cc1nn(C(F)F)cc1-n1ccc(NC(=O)C2(c3ccccc3F)CC2)n1` [Compound 414, N-[1-[1-(difluoromethyl)-3-methyl-pyrazol-4-yl]pyrazol-3-yl]-1-(2-fluorophenyl)cyclopropanecarboxamide], for which the IC50 is more than 5000 nM.

Take `O=C(Cc1ccon1)Nc1ccn(-c2ccnc(F)c2)n1` [Compound 304, N-[1-(2-fluoro-4-pyridyl)pyrazol-3-yl]-2-isoxazol-3-yl-acetamide]: the IC50 was more than 5000 nM.

Regarding `O=C(Cc1ccccc1OC(F)(F)F)Nc1ccn(-c2ccccc2)n1` [Compound 54, N-(1-phenylpyrazol-3-yl)-2-[2-(trifluoromethoxy)phenyl]acetamide], the IC50 is more than 5000 nM.

On to `O=C(Nc1ccn(-c2ccncc2F)n1)C1(c2ccccc2)CC1` [Compound 138, N-(1-(3-fluoropyridin-4-yl)-1H-pyrazol-3-yl)-1-phenylcyclopropane-1-carboxamide], for which the IC50 was found to be 55 nM.

For the molecule `O=C(Nc1ccn(-c2ccncc2)n1)C1(c2ncccc2F)CC1` [Compound 422, 1-(3-fluoro-2-pyridyl)-N-[1-(4-pyridyl)pyrazol-3-yl]cyclopropanecarboxamide], the IC50 was determined as 200 nM.

As for `O=C(Nc1ccn(-c2ncccc2Cl)n1)C1(c2ncccc2F)CC1` [Compound 453], the IC50 was more than 5000 nM.

As to `CNc1ncc(-n2ccc(NC(=O)C3(c4ccccc4F)CC3)n2)cc1F` [Compound 431, N-[1-[5-fluoro-6-(methylamino)-3-pyridyl]pyrazol-3-yl]-1-(2-fluorophenyl)cyclopropanecarboxamide], the IC50 stood at 860 nM.

On to `O=C(Cc1ccccc1)Nc1ccn(-c2cncnc2)n1` [Compound 96, 2-phenyl-N-(1-pyrimidin-5-ylpyrazol-3-yl)acetamide], for which the IC50 turned out to be 2400 nM.

Regarding `COc1cc(-n2ccc(NC(=O)C3(c4ncccc4F)CC34CC4)n2)ccn1` (centres unmarked) [Compound 527, 2-(3-fluoro-2-pyridyl)-N-[1-(2-methoxy-4-pyridyl)pyrazol-3-yl]spiro[2.2]pentane-2-carboxamide], the IC50 was more than 2000 nM.

Consider `CC1(C)CC1(C(=O)Nc1ccn(-c2ccc(F)cc2)n1)c1ncccc1F` (centres unmarked) [Compound 513, N-[1-(4-fluorophenyl)pyrazol-3-yl]-1-(3-fluoro-2-pyridyl)-2,2-dimethyl-cyclopropanecarboxamide], for which the IC50 turned out to be 980 nM.

Turning to `O=C(Cc1ccccc1F)Nc1ccn(-c2ccncc2)n1` [Compound 14, 2-(2-fluorophenyl)-N-[1-(4-pyridyl)pyrazol-3-yl]acetamide], the IC50 was found to be 580 nM.

`CC1CC1(C(=O)Nc1ccn(-c2ccc(F)c(F)c2)n1)c1ncccc1F` (centres unmarked) [Compound 506, N-[1-(3,4-difluorophenyl)pyrazol-3-yl]-1-(3-fluoro-2-pyridyl)-2-methyl-cyclopropanecarboxamide]: the IC50 was found to be 220 nM.

As to `O=C(Cc1cc(F)cc(F)c1)Nc1ccn(-c2ccccc2)n1` [Compound 58, 2-(3,5-difluorophenyl)-N-(1-phenylpyrazol-3-yl)acetamide], the IC50 was more than 5000 nM.

For `O=C(Nc1ccn(-c2cncc(F)c2)n1)C1(c2ccccc2)CC1(F)F` (racemic) [Compound 420, 2,2-difluoro-N-(1-(5-fluoropyridin-3-yl)-1H-pyrazol-3-yl)-1-phenylcyclopropane-1-carboxamide], the IC50 worked out at 100 nM.

Regarding `O=C(Cc1ccon1)Nc1ccn(-c2ccccc2)n1` [Compound 306, 2-isoxazol-3-yl-N-(1-phenylpyrazol-3-yl)acetamide], the IC50 is more than 2000 nM.

As to `O=C(Cc1cccc(C(F)(F)F)c1)Nc1ccn(-c2ccccc2)n1` [Compound 51, N-(1-phenylpyrazol-3-yl)-2-[3-(trifluoromethyl)phenyl]acetamide], the IC50 is more than 2000 nM.

For the molecule `O=C(Cc1ccccc1)Nc1ccn(-c2nccs2)n1` [Compound 89, 2-phenyl-N-(1-thiazol-2-ylpyrazol-3-yl)acetamide], the IC50 amounted to 340 nM.

Take `O=C(Cc1ccc(F)c(Cl)c1)Nc1ccn(-c2ccccc2)n1` [Compound 64, 2-(3-chloro-4-fluoro-phenyl)-N-(1-phenylpyrazol-3-yl)acetamide]: the IC50 was more than 5000 nM.

Regarding `O=C(Cc1cc(F)c(F)c(F)c1)Nc1ccn(-c2ccccc2)n1` [Compound 17, N-(1-phenylpyrazol-3-yl)-2-(3,4,5-trifluorophenyl)acetamide], the IC50 was more than 5000 nM.

With `O=C(Cc1ncccn1)Nc1ccn(-c2ccccc2)n1` [Compound 220, N-(1-phenylpyrazol-3-yl)-2-pyrimidin-2-yl-acetamide], the IC50 is more than 2000 nM.

With `O=C(Cc1ccccc1F)Nc1ccn(-c2ccncn2)n1` [Compound 208, 2-(2-fluorophenyl)-N-(1-pyrimidin-4-ylpyrazol-3-yl)acetamide], the IC50 is 2300 nM.

As for `O=C(Nc1cc(F)n(-c2cncc(F)c2)n1)C1(c2ncccc2F)CC1` [Compound 462, N-[5-fluoro-1-(5-fluoro-3-pyridyl)pyrazol-3-yl]-1-(3-fluoro-2-pyridyl)cyclopropanecarboxamide], the IC50 was more than 5000 nM.

`CC1CC1(C(=O)Nc1ccn(-c2cc(F)cc(F)c2)n1)c1ncccc1F` (centres unmarked) [Compound 508, N-[1-(3,5-difluorophenyl)pyrazol-3-yl]-1-(3-fluoro-2-pyridyl)-2-methyl-cyclopropanecarboxamide]: the IC50 was 71 nM.

Regarding `COc1ccc(F)c(C2(C(=O)Nc3ccn(-c4ccnc(F)c4)n3)CC2)c1` [Compound 314, 1-(2-fluoro-5-methoxy-phenyl)-N-[1-(2-fluoro-4-pyridyl)pyrazol-3-yl]cyclopropanecarboxamide], the IC50 was 57 nM.

For the molecule `O=C(Nc1ccn(-c2ccncn2)n1)C1(c2ncccc2F)CC1` [Compound 279, 1-(3-fluoro-2-pyridyl)-N-(1-pyrimidin-4-ylpyrazol-3-yl)cyclopropanecarboxamide], the IC50 turned out to be 520 nM.
